Literature values in patent US7098224B2, “Hydroxylansoprazole methods” (Sepracor Inc., priority 1998, dated 2006).

Test system: isolated parietal cells
Conditions: Inatomi et al., Yakuri to Chiryo 19, 477–486 (1991)

Row | Structure (SMILES) | IC50 (read-out: inhibited acid formation in isolated parietal cells, IC50) [nM] | inhibition of acid formation in isolated parietal cells (result in words)
1 | Cc1c(OCC(F)(F)F)ccnc1C[S+]([O-])c1nc2ccccc2[nH]1 (racemic) [lansoprazole, Lansoprazole] | 90 | 
2 | Cc1c(OCC(F)(F)F)ccnc1C[S+]([O-])c1nc2cc(O)ccc2[nH]1 (racemic) [racemic hydroxylansoprazole, 2[[[3-methyl-4-(2,2,2-trifluoroethoxy)-2-pyridinyl]methyl]sulfinyl]-1 H-benzimidazol-5-ol] |  | did not inhibit acid formation
